Data on 1 molecule can be found in patent US20100004234A1, “SPECIFIC KINASE INHIBITORS” (Kosan Biosciences Incorporated, priority 2004, published 2010).

One may read the IC50 as the midpoint of a concentration-inhibition curve. For orientation: GI50 means the concentration at which growth is held to half of that of the control.

The structures appear in SMILES notation.

Assay [1] relates to COLO829 (Human melanoma, B-Raf V599E). The experiment in a line: Cell proliferation assay (Cell Titer Glo). It is filed as cell-based. Conditions: COLO-829. The procedure: (§1) In one illustrative method, cells are treated with various concentrations of the inhibitor in 96 well plates, incubated at 37° C./5% CO2 for three days, and analyzed using the Cell Titer Glo kit (Promega).
(§2) COLO829 is a human melanoma cell line. HT29 is a human colon cancer cell line. Both cell lines have a V600E B-Raf mutation. SKOV3 is an ovarian cancer cell line having wild-type B-Raf. EKR2 (extra-cellular signal regulated kinase 2) is a kinase in the Ras/B-Raf MAP kinase cascade pathway.

Assay [2] has as its system HT29 (Human colon, B-Raf V599E). The experiment in a line: Cell proliferation assay (Cell Titer Glo). It is filed as cell-based. Conditions: HT-29; HT29 (Human colon, B-Raf V599E); Tables 1 and 4; read-out: Kinase Inhibitor IC50. The method, then: as §1, §2
(In general: In ATP-based viability assays light output follows the ATP content of the culture.)

In assay [3] the test system is panel of 120 kinases. Conditions: panel of some 120 kinases; cited from earlier work.
Assay [4] relates to DU4475 (Human breast, B-Raf V599E). The experiment in a line: Cell proliferation assay (Cell Titer Glo). Conditions: DU-4475; DU4475 (Human breast, B-Raf V599E); Tables 1 and 4; read-out: Kinase Inhibitor IC50. In kind it is cell-based. The method, then:
as §1

Assay [5] deals with EOL-1 (Human leukemia FLP1L1-PDGFRA). The experiment in a line: Cell proliferation assay (Cell Titer Glo). In kind it is cell-based. Conditions: EOL1; EOL-1 (Human leukemia FLP1L1-PDGFRA); read-out: Kinase Inhibitor IC50. The method, then: as §1
Assay [6] deals with WM266-4 (Human melanoma, B-Raf V599D). The experiment in a line: Cell proliferation assay (Cell Titer Glo). Conditions: WM 266-4; WM266-4 (Human melanoma, B-Raf V599D); Tables 1 and 4; read-out: Kinase Inhibitor IC50. It is filed as cell-based. The method, then:
as §1

The test system of assay [7] is MV4-11 (Human leukemia Flt3-ITD). The assay is described as follows: Cell proliferation assay (Cell Titer Glo). It is filed as cell-based. The method, then:
as §1

The subject of assay [8] is P815 (Mouse mastocytoma, KIT D814Y). The experiment in a line: Cell proliferation assay (Cell Titer Glo). It is filed as cell-based. The method, then:
as §1

Assay [9] relates to A375 (Human melanoma, B-Raf V599E). The assay is described as follows: Cell proliferation assay (Cell Titer Glo). Conditions: A-375; A375 (Human melanoma, B-Raf V599E); Tables 1 and 4; read-out: Kinase Inhibitor IC50. In kind it is cell-based. The procedure: as §1

With `CCN(CC)CCNC(=O)c1c(C)[nH]c(/C=C2\C(=O)Nc3ccc(F)cc32)c1C` [SU11248], the IC50 in assay [1] (COLO829 (Human melanoma, B-Raf V599E), Tables 1 and 4, read-out: Kinase Inhibitor IC50) came to 7.1 µM; in assay [2] it was 4.2 µM; in assay [4], 4 µM; in assay [5], 0.0017 µM; in assay [6] it was 8.2 µM; in assay [7] (MV4-11 (Human leukemia Flt3-ITD), read-out: Kinase Inhibitor IC50) it was 0.01 µM. Also, the IC50 in assay [8] (P815 (Mouse mastocytoma, KIT D814Y), read-out: Kinase Inhibitor IC50) was 0.32 µM; in [9], 5.4 µM. Further, the GI50 in [1] (Homo sapiens, melanoma cell line COLO829, read-out: GI50) turned out to be 7.1 µM; in [7] (Homo sapiens, MV4-11, AML (FLT3 ITD) cell line MV-4-11, read-out: GI50), 0.012 µM; in [8] (mouse mastocytoma cell line P815, constitutively active cKIT (D814Y), read-out: GI50), 0.32 µM. Moreover, the “number of kinases inhibited” value in [3] is on record as ~79.
